Measured values reported in ChEMBL document CHEMBL1151839, “Phosphorothioate analogs of m7GTP are enzymatically stable inhibitors of cap-dependent translation” (Bioorg Med Chem Lett, 2009).
pIC50: −log10 of the molar value.

Key:
[1] = Stability in presence of human DcpS assessed as complete degradation at 40 uM by HPLC-based assay; type: ADME
[2] = target: Eukaryotic translation initiation factor 4E (Mus musculus) (UniProt P63073)
Description: Binding affinity to mouse eukaryotic initiation factor 4E expressed in Escherichia coli BL21(DE3) by fluorescence quenching titration method

[3] = target: T1, Eukaryotic translation initiation factor 4E (Oryctolagus cuniculus, UniProt P29338); test: Inhibition of eukaryotic initiation factor 4E in micrococcal nuclease-pretreated rabbit reticulocyte lysate assessed as inhibition of m7,3'-O-GpppG-capped 5'UTRbetaglob-LUC mRNA translation by luciferase-based luminometry
[4] = target: T1, Eukaryotic translation initiation factor 4E; test: Inhibition of eukaryotic initiation factor 4E in micrococcal nuclease-pretreated rabbit reticulocyte lysate assessed as inhibition of m7,3'-O-GpppG-capped 5'UTRbetaglob-LUC mRNA translation treated 60 mins before mRNA addition by luciferase-based luminometry
[5] = target: T1, Eukaryotic translation initiation factor 4E; test: Inhibition of eukaryotic initiation factor 4E in micrococcal nuclease-pretreated rabbit reticulocyte lysate assessed as inhibition of rabbit beta-[…] mRNA translation by [3H]leucine incorporation assay

T1 sequence (P29338 whole entry): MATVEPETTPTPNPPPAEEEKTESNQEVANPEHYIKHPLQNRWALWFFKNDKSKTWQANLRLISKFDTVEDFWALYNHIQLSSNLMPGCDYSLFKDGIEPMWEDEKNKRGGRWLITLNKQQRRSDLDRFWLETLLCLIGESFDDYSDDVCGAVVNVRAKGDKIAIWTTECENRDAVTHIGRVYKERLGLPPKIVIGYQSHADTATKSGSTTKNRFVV
Sequence of Eukaryotic translation initiation factor 4E (Mus musculus) (P63073 whole entry): as the sequence (P29338 whole entry) above, with P12T counted along it

| SMILES | Stability [1] | Ka [2] [µM⁻¹] | pIC50 [3] | pIC50 [4] | pIC50 [5] |
| --- | --- | --- | --- | --- | --- |
| C[n+]1cn([C@@H]2O[C@H](COP(=O)(O)OP(=O)([O-])OP(=O)(O)OC[C@H]3O[C@@H](n4cnc5c(=O)[nH]c(N)nc54)[C@H](O)[C@@H]3O)[C@@H](O)[C@H]2O)c2nc(N)nc(O)c21 |  | 9.4 |  |  |  |
| C[n+]1cn([C@@H]2O[C@H](COP(=O)(O)OP(=O)([O-])OP(=O)(O)OC[C@H]3O[C@@H](n4cnc5c(=O)[nH]c(N)nc54)[C@H](O)[C@@H]3O)[C@@H](O)[C@H]2O)c2nc(N)[nH]c(=O)c21 | Unstable |  | 5.08 | > 4.70 | 4.77 |
| C[n+]1cn([C@@H]2O[C@H](CO[P@](=O)(S)OP(=O)(O)OP(=O)(O)OC[C@H]3O[C@@H](n4cnc5c(=O)[nH]c(N)nc54)[C@H](O)[C@@H]3O)[C@@H](O)[C@H]2O)c2nc(N)[n-]c(=O)c21 | Stable |  | 5.96 | 5.92 | 5.39 |
| C[n+]1cn([C@@H]2O[C@H](CO[P@@](=O)(S)OP(=O)([O-])OP(=O)(O)OC[C@H]3O[C@@H](n4cnc5c(=O)[nH]c(N)nc54)[C@H](O)[C@@H]3O)[C@@H](O)[C@H]2O)c2nc(N)nc(O)c21 | Stable | 10 | 5.42 | 5.68 | 4.92 |

Further lines, results first:

| Stability [1] | Ka [2] [µM⁻¹] | pIC50 [3] | pIC50 [4] | pIC50 [5] | SMILES |
| --- | --- | --- | --- | --- | --- |
| Stable | 371 | 6.25 | 6.25 |  | C[n+]1cn([C@@H]2O[C@H](CO[P@](=O)(S)OP(=O)([O-])OP(=O)(O)O)[C@@H](O)[C@H]2O)c2nc(N)nc(O)c21 |
| Unstable |  |  |  |  | C[n+]1cn([C@@H]2O[C@H](COP(=O)([O-])OP(=O)(O)OP(=O)(O)O)[C@@H](O)[C@H]2O)c2nc(N)[nH]c(=O)c21 |
|  | 190 |  |  |  | C[n+]1cn([C@@H]2O[C@H](CO[P@@](=O)(S)OP(=O)(O)OP(=O)([O-])O)[C@@H](O)[C@H]2O)c2c1C(O)NC(N)=N2 (stereo not given in full) |
